Data as given in ChEMBL document CHEMBL1201862, “PubChem BioAssay data set” (2004).
Activity calls are given as the source filed them.

What was measured:
[1] = tested on: HeLa; test: ATP-based viability loss in HeLa cells – cell-based, CellTiter-Glo luminescence, cherry-pick samples, cytotoxicity control for MITF activator project, dose response (AID 540259); format: functional; settings: Homo sapiens
[2] = Luminescence Cell-Based Dose Response HTS to Identify Activators of Luciferase Translation or Activity in H4 […] Cells. [Related pubchem assays: 1829 (Project Summary), 1814 (Primary HTS)]; format: functional
[3] = tested on: H4; test: Luminescence Cell-Based Dose Response HTS to Identify Activators of 5'UTR Stem-Loop Driven Prion Protein mRNA Translation in H4 Neuroglioblastoma Cells. [Related pubchem assays: 1829 (Project Summary), 1814 (Primary HTS)]; format: functional; settings: Homo sapiens
[4] = biological target: T1, Short transient receptor potential channel 4 (Mus musculus, UniProt Q9QUQ5); test: calcium entry via TRPC4 opening agents – cell-based, HEK293 TRPC4/mu-opioid, Fluo-4 calcium, dose response (AID 434937); format: functional
T1 sequence (Q9QUQ5 whole entry): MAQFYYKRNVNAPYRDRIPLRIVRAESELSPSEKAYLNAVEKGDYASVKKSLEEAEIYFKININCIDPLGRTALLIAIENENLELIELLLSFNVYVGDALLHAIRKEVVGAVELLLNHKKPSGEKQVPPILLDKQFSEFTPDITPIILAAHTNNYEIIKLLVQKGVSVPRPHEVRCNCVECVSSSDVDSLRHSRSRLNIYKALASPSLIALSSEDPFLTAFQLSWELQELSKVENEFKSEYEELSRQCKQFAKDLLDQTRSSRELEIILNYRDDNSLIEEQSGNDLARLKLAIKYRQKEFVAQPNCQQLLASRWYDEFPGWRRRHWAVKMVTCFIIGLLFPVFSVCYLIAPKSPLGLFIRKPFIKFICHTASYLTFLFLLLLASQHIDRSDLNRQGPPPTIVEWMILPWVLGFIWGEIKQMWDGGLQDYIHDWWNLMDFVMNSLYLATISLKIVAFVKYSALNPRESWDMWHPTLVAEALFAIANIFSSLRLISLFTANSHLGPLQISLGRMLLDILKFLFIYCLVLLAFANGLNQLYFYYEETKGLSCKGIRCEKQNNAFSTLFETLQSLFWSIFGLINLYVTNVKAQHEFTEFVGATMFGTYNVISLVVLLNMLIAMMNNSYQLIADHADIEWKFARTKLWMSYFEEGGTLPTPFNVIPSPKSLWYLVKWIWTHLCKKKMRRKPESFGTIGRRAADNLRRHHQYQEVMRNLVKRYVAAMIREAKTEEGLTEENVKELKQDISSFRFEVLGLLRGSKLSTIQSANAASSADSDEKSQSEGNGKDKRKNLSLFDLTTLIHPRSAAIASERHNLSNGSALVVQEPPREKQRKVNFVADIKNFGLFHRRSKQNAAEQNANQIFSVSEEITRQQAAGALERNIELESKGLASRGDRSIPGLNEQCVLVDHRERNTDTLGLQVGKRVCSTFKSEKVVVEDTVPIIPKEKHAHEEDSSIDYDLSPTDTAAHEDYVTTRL

[5] = biological target: Delta-type opioid receptor (Homo sapiens, UniProt P41143); test: Counterscreen for agonists of heterodimerization of the mu 1 (OPRM1) and delta 1 (OPRD1) opioid receptors: Luminescence-based cell-based high throughput dose response assay to identify agonists of OPRD1 homodimerization. [Related pubchem assays (depositor defined):AID504326, AID504355, AID504692, AID504904, AID504905]; format: functional
Chain of Delta-type opioid receptor (P41143 whole entry): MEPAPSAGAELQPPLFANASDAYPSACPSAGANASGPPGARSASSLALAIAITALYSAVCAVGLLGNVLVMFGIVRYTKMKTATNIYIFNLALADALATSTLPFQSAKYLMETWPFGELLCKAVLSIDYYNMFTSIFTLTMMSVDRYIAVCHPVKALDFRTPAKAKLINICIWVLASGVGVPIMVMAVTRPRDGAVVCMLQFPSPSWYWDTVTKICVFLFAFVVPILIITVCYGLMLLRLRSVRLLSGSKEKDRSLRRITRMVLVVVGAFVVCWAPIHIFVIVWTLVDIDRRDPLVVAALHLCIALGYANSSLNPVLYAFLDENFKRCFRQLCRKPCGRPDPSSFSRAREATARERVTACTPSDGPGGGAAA

[6] = biological target: Mu-type opioid receptor (Homo sapiens, UniProt P35372); test: Counterscreen for agonists of heterodimerization of the mu 1 (OPRM1) and delta 1 (OPRD1) opioid receptors: Luminescence-based cell-based high throughput dose response assay to identify agonists of OPRM1 homodimerization.; format: functional;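 further: U2OS cells expressing OPRM1 and beta-arrestin as split beta-galactosidase partners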
Chain of Mu-type opioid receptor (P35372 whole entry): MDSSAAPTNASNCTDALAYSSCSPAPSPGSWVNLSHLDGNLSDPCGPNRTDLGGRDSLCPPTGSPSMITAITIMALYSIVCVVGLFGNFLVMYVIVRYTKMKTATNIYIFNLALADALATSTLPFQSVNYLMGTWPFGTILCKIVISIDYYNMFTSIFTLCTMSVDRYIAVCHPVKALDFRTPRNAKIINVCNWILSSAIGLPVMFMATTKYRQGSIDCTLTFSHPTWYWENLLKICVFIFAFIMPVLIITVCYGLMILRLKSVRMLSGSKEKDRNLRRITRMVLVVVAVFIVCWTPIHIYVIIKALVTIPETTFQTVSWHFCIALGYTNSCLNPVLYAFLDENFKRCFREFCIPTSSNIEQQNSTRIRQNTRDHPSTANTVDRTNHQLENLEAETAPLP

[7] = biological target: 5-hydroxytryptamine receptor 5A (Homo sapiens, UniProt P47898); test: Counterscreen for agonists of OPRM1-OPRD1 heterodimerization: luminescence-based cell-based high throughput dose response assay to identify agonists of 5-hydroxytryptamine (serotonin) 5A receptor (HTR5A). [Related pubchem assays (depositor defined):AID504326, AID504355, AID504692, AID504904, AID504905]; format: functional
Chain of 5-hydroxytryptamine receptor 5A (P47898 whole entry): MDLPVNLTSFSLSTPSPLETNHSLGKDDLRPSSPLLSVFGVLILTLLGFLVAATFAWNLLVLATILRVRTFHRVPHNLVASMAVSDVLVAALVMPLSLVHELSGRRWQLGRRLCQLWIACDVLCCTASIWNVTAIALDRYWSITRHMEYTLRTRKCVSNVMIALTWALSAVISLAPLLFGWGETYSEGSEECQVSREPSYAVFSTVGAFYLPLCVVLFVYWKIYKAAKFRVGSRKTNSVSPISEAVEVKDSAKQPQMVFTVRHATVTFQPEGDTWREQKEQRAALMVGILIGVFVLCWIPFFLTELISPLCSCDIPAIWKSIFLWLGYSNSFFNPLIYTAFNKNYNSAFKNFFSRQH

[8] = NIH-3T3 fibroblast cytotoxicity, dose response, cytotoxicity control, cell-based, fluorescence, Alamar Blue, secondary assay (AID 2327); format: functional;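 further: NIH-3T3 mouse fibroblasts cultured with fluconazole at 8 µg/mL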
[9] = fluconazole-exposed Candida albicans growth modulators – fluorescence, retest, confirmation (AID 2467); format: functional, cell-based
[10] = biological target: T2, Serine/threonine-protein phosphatase (Candida dubliniensis (strain CD36 / CBS 7987 / NCPF 3949 / NRRLY-17841) (Yeast), UniProt B9W6M3); test: blockers of CaCl2-induced CDRE-lacZ signaling – S. cerevisiae, luminescence, secondary, dose response (AID 2388); format: functional, cell-based;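 further: yeast reporter cells carrying a calcineurin-responsive lacZ construct stimulated with calcium chloride; luminescent beta-galactosidase reporter signal in whole cells rather than isolated phosphatase activity; potency for inhibition where a drop in reporter signal means calcineurin blockade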
T2 sequence (B9W6M3 whole entry): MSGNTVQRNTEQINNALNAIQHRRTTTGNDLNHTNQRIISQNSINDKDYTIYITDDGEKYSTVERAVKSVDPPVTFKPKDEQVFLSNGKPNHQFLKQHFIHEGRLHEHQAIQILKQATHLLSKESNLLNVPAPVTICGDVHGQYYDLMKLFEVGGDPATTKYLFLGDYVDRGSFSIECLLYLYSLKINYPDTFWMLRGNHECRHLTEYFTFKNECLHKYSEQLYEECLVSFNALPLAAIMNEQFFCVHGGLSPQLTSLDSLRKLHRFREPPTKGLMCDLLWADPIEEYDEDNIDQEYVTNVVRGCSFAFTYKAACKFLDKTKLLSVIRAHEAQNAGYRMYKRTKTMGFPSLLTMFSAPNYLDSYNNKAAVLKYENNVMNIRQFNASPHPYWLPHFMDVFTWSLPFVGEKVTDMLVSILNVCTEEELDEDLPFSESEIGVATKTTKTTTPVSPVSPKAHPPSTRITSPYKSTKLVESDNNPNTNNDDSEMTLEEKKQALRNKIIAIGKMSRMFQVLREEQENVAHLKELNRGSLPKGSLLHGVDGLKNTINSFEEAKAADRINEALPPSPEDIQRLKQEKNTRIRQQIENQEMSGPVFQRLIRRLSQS

[11] = biological target: ATP-dependent molecular chaperone HSP82 (Candida albicans (strain WO-1) (Yeast), UniProt C4YTQ8); test: steroid-induced GRE reporter decrease in yeast – S. cerevisiae, luminescence, Hsp90 inhibitor project, dose response (AID 2400); format: functional, cell-based;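 further: beta-galactosidase luminescence from glucocorticoid response element reporter as proxy for Hsp90 function; inhibitor potency where signal loss means Hsp90 inhibition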
Chain of ATP-dependent molecular chaperone HSP82 (C4YTQ8 whole entry): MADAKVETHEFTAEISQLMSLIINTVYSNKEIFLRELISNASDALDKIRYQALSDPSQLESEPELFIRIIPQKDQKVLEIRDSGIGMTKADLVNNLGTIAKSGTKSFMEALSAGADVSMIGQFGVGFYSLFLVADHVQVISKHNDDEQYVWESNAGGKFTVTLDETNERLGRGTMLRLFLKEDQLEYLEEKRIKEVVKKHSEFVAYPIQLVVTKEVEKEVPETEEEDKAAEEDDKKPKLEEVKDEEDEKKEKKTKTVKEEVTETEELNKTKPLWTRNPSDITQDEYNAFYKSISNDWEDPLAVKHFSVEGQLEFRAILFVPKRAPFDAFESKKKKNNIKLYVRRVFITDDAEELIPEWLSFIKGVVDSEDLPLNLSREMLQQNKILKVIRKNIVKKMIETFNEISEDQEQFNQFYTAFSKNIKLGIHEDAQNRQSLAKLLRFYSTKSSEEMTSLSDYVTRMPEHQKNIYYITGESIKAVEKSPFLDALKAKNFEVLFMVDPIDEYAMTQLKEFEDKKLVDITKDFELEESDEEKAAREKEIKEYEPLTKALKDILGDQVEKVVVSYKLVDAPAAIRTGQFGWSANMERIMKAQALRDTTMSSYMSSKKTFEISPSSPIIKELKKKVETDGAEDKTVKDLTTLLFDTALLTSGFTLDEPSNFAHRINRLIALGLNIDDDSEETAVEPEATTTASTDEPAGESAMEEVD

[12] = biological target: T3, Corticotropin-releasing factor receptor 2/Corticotropin-releasing factor-binding protein (Homo sapiens, UniProt P24387+Q13324); test: Dose Response confirmation of uHTS hits for small molecule antagonists of the CRF-binding protein and CRF-R2 receptor complex.; format: functional; settings: read-out: IC50_Mean
T3 sequence (Q13324 whole entry): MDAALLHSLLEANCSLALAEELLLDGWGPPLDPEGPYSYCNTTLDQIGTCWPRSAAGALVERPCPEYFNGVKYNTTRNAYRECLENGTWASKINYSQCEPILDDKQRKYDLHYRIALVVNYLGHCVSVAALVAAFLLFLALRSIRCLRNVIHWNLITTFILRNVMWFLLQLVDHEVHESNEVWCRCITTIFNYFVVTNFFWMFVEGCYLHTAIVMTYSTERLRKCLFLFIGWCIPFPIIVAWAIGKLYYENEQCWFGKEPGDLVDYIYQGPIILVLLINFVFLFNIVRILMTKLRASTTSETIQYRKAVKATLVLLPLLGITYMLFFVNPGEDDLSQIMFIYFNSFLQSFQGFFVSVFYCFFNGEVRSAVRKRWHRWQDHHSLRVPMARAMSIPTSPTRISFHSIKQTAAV
T3 sequence (P24387 whole entry): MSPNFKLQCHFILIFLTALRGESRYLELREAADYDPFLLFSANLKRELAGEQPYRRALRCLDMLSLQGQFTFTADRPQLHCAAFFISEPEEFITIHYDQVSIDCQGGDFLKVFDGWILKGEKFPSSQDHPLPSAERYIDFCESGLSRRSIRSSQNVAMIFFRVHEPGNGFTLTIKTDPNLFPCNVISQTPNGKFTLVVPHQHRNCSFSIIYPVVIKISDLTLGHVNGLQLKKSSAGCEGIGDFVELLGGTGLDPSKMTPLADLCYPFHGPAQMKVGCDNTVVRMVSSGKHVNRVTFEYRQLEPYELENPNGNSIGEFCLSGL

[13] = biological target: T3, Corticotropin-releasing factor receptor 2/Corticotropin-releasing factor-binding protein; test: activators of CRF receptor 2 with binding protein – uHTS hits, confirmation (AID 602473); format: functional; settings: read-out: EC50_Mean
[14] = biological target: T4, Caspase-3 (Homo sapiens, UniProt P42574); format: functional;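 further: Dose-response selectivity test against caspase-3 for candidate inhibitors of sentrin-specific proteases (SENPs)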
T4 sequence (P42574 whole entry): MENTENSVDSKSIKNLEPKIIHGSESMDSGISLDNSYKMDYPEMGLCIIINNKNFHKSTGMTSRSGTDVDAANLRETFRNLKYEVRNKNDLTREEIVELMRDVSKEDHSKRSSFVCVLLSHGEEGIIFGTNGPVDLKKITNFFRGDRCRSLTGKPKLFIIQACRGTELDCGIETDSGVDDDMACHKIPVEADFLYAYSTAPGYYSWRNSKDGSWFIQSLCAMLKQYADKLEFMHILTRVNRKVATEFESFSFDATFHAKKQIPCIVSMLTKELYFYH

[15] = biological target: T5, Sentrin-specific protease 6 (Homo sapiens, UniProt Q9GZR1); format: functional;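 further: Luminescence-based dose-response confirmatory assay of SENP6 inhibition, following up an ultra-high-throughput screen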
T5 sequence (Q9GZR1 whole entry): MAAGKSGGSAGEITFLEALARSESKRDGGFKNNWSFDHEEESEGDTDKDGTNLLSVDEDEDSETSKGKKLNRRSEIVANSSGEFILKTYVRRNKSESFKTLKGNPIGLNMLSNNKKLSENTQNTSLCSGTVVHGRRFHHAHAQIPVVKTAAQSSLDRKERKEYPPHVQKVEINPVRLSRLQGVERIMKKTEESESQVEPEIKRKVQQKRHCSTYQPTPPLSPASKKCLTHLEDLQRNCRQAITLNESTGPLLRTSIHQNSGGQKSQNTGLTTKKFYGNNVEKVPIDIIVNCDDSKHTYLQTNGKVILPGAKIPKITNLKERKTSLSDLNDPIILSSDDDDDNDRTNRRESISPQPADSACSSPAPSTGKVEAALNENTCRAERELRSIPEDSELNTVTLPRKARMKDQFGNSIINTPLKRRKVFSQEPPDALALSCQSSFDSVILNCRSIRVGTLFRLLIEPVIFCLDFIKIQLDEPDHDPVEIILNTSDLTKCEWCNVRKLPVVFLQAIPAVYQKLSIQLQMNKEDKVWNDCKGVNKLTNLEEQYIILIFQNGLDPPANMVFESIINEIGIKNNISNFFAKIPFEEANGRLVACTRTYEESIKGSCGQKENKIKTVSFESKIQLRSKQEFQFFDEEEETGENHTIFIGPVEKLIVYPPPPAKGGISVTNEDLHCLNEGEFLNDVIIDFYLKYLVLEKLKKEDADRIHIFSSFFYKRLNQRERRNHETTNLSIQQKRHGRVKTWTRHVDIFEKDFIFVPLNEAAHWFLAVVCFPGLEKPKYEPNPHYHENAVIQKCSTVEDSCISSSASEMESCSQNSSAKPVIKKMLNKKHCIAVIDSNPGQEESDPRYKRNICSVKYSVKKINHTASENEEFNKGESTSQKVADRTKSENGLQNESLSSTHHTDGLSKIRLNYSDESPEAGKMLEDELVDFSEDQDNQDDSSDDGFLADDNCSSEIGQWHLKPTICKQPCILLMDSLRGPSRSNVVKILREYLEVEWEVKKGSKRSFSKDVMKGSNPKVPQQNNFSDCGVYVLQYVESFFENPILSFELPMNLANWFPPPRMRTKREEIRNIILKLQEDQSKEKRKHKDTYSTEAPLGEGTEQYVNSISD

[16] = biological target: T6, Sentrin-specific protease 8 (Homo sapiens, UniProt Q96LD8); format: functional;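 further: luminescence read-out of SENP8 inhibition, dose-response confirmation following an ultra-high-throughput screen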
T6 sequence (Q96LD8 whole entry): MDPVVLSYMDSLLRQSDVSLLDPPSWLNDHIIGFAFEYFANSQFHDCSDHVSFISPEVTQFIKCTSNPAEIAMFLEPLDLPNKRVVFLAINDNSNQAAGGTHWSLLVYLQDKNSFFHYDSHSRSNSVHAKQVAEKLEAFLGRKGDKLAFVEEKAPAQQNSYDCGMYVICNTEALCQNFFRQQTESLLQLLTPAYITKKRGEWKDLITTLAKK

O=S(=O)(Cc1cc(-c2ccccc2Cl)no1)c1ccccc1
AC50 [1]: 51.8 µM (active)

Clc1cnc(N/N=C/c2cccs2)c(Cl)c1
EC50 [2]: 0.411 µM (active)
EC50 [3]: 0.136 µM (active)
AC50 [1]: 62.4 µM (active)

CN(C)C(CNC(=O)C1CC(=O)N(Cc2ccccc2)C1)c1ccccc1 (stereo not drawn)
EC50 [4]: 1.33 µM (active)
EC50 [5]: > 92.5 µM (inactive)
EC50 [6]: > 92.5 µM (inactive)
EC50 [7]: > 92.5 µM (inactive)

COc1cc(OC)c2c(-c3cccc(/C=C/c4ccc(F)cc4)c3)cc(=O)oc2c1
AC50 [1]: 165 µM (active)

Cc1nn(-c2ccccc2)c(Cl)c1/C=C/C(=O)c1ccc(O)cc1
EC50 [8]: > 150 µM (inactive)
EC50 [9]: 1.1 µM (active)
EC50 [10]: > 180 µM (inactive)
EC50 [11]: 18.9 µM (active)
IC50 [12]: > 47.1 µM (inactive)
EC50 [13]: > 53 µM (inactive)

COc1cc(NC(=O)c2cccc(C)c2)ccc1NC(=O)c1cc2ccccc2o1
EC50 [5]: > 92.4 µM (inactive)
EC50 [6]: > 92.4 µM (inactive)
EC50 [7]: > 92.4 µM (inactive)

Cc1cc(C)cc(C(=O)N(CCc2ccccc2)C2=CC3CCC(C2)N3C)c1 (stereo not drawn)
EC50 [4]: 0.267 µM (active)
EC50 [5]: > 92.5 µM (inactive)
EC50 [6]: 43.9 µM (inactive)
EC50 [7]: > 92.5 µM (inactive)

CCCCc1ccc(Nc2ncccc2C#N)cc1
IC50 [14]: 21.3 µM (active)
IC50 [15]: 17.2 µM (active)
IC50 [16]: 33.1 µM (active)

COC(=O)c1sccc1NC(=O)CCC1CCCCC1
IC50 [14]: 27.9 µM (active)
IC50 [15]: 62.8 µM (active)
IC50 [16]: > 100 µM (inactive)
